“And” between values parts separate entries of the source, which are not always exact repeats. Equal entries are not always repeated.
How the values were obtained:
[1] = system: A549 lung cancer cell line; assay: MTT cellular viability assay, A549; format: cell-based; settings: 72 hours, ± standard deviation
Description: (§1) Cell lines were obtained from American Type Culture Collection (ATCC, Manassas, VA). […] Caco-2 (ATCC: HTB-37) colorectal cancer was grown in EMEM with 20% FBS and 1% penicillin/streptomycin. All cell lines were incubated at 37°C in 5% CO2 with passaging every 4–7 days. Cell culture media and supplements were obtained from ATCC, Atlanta Biologicals (Flowery Branch, GA), Mediatech (Tewksbury, MA), Fisher Scientific (Waltham, MA), Gibco (Gaithersburg, MD) and Sigma-Aldrich.
(§2) The MTT (3-(4,5-dimethylthiazol-2-yl)-2,5-diphenyltetrazolium bromide) cellular viability assay was performed in all three cancer cell lines and the non-cancer cell line. Following a protocol adapted from, cells were seeded at 5,000 cells per well in 96-well plates and incubated at 37°C in 5% CO2 in F-12K Medium or EMEM with FBS supplementation and 1% penicillin/streptomycin for 24 hours. Then, wells were treated in replicates of six according to a concentration series (500, 50, 5, 0.5, 0.05 μM) of specific platinum complexes for 72 hours. A negative control (media only), positive control (Triton X-100) and series of blanks were simultaneously performed. The MTT assay was run for 2 hours, then well contents were rapidly evacuated out and all wells were treated with MTT solubilization solution [10% Triton X-100 in acidic (0.1N HCl) isopropanol] for 15 minutes before the plates were read using a BioTek Synergy HT microplate plate reader (570 nm and 690 nm absorbance wavelengths). Reagents, cell culture media and supplements were obtained from ATCC, Atlanta Biologicals, Mediatech, Fisher Scientific, Gibco and Sigma-Aldrich.
(§3) GraphPad Prism v6 (La Jolla, CA) was used for all statistical analysis. Nuclear fraction platinum uptake as a total percent of combined nuclear and cytosolic uptake was analyzed using a one-way ANOVA (Brown-Forsyth test; p ≤ 0.05). IC50 values were calculated in Prism using the sigmoidal, 4PL, x is log(concentration) analysis feature or were calculated from Prism derived values using the equation y = mx + b. MTT assay standard deviation values were calculated using ED50plus v1.0 online software. AEP threshold data were analyzed by two-way ANOVA (Dunnett’s multiple comparisons test; p ≤ 0.05) and hair cell quantification data by two-way ANOVA (Tukey’s multiple comparisons test; p ≤ 0.05). AEP temporary threshold shifts (TTS) were calculated by subtracting the mean vehicle threshold for each frequency from each treatment threshold. TTS data were averaged across frequencies for each treatment and were analyzed by one-way ANOVA (Tukey’s multiple comparisons test; p ≤ 0.05).

[2] = system: zebrafish hearing thresholds; assay: Auditory evoked potential (AEP) testing in zebrafish inner ear model; format: in vivo, Danio rerio; settings: 25 mg/kg i.p.; for AEP hearing threshold, significance of pairwise comparison against vehicle / AEP hearing threshold, significance of pairwise comparison against cisplatin: 48 h; for mean (± S.E.) temporary threshold shift (TTS), averaged across frequencies: 48 hours, vehicle threshold subtracted
Description: (§4) Zebrafish (Danio rerio) were purchased from a commercial supplier (Segrest Farms, Gibsonton, FL) and maintained in the animal facility of Western Kentucky University according to a protocol approved by the Institutional Animal Care and Use Committee. All zebrafish used in this study were a mix of male and female adult animals at least 6 months of age and were maintained according to standard methods.
(§5) After injection, fish were returned to holding tanks for either 24 or 48 hours and then subjected to hearing tests followed by hair cell quantification analysis.
Auditory evoked potential (AEP) testing was performed on individual fish according to standard protocols. […] After harness placement was complete, three 27 gauge stainless steel electrodes (Rochester Electro-Medical, Inc., Lutz, FL) were inserted approximately 2 mm subdermally to record AEPs. A reference electrode was inserted into the medial dorsal surface of the head, a recording electrode directly over the brainstem and a ground electrode in the tail musculature. Sound stimuli (tone pips) were presented to each fish at 8 frequencies (100, 250, 400, 600, 800, 1000, 1500 and 3000 Hz) and AEP waveforms were collected using a TDT System III physiology apparatus (Tucker-Davis Technologies Inc., Alachua, FL) running SigGen and BioSig software. Auditory stimuli were passed through a P1000 power amplifier (Hafler, Port Coquitlam, BC) and presented with a University Sound UW-30 underwater speaker (Electro-Voice, Fairport, NY). Sound pressure levels were confirmed using a Type 10CT hydrophone (G.R.A.S., Holte, Denmark) placed adjacent to the mesh harness. Auditory thresholds were determined in 5 dB increments by visual inspection of AEP waveforms.
as §3

[3] = system: IMR-90 lung fibroblast control cell line; assay: MTT cellular viability assay, IMR90; format: cell-based; settings: IMR90 (fibroblast, non-cancer), 72 hours, ± standard deviation
Description: as §1, §2, §3

[4] = system: zebrafish saccule hair cells; assay: Hair cell quantification, saccule; format: in vivo, Danio rerio; settings: 25 mg/kg i.p., 48 hours; for effect on hair cell density in four regions of the saccule compared to vehicle: 5, 25, 50, 75% regions
Description: as §4, §5
Hair cell counts were performed from specific regions of the zebrafish saccule and utricle using established procedures. […] Prior to dissection, heads were rinsed three times for 10 minutes each at room temperature in phosphate buffer (pH 7.4, LabChem, Pittsburgh, PA) and the inner ear epithelia (saccule and utricle) were then carefully dissected out and trimmed. […] Tissue samples were then placed on glass slides and nuclei were labelled with Prolong Gold antifade reagent (4’,6-diamidino-2-phenylindole [DAPI], Life Technologies, Carlsbad, CA) and a cover-slip was placed over the samples for microscopy.
Saccule and utricle samples were viewed through the FITC filter of a Zeiss Axioplan2 epifluorescence microscope (Carl Zeiss, Jena, Germany) at 20X magnification and were then photographed using an AxioCam MRm camera. Cell counts were made from four regions of the saccule (5%, 25%, 50%, 75%) along the rostral-caudal length of the organ by placing a 50 μm x 50 μm box at each location and using the microscope cell counter feature. In the utricular samples, cell counts were made from three equidistant 50 μm x 50 μm boxes in both the extrastriolar and striolar regions.
as §3

[5] = system: U-138 MG (HTB-16) glioblastoma cancer cell line; assay: MTT cellular viability assay, HTB16; format: cell-based; settings: HTB16 (glioma), 72 hours, ± standard deviation
Description: as §1, §2, §3

[6] = system: 5'-GMP; assay: Kinetic 5'-GMP assay (1H NMR, rate of reaction of platinum complex with 5'-GMP); format: biochemical; settings: D2O, pH 7, 25°C; for Rate constant for the reaction of 5'-GMP with the platinum(II) complex: excess platinum, fitted first order in each reactant
Description: The reaction of each platinum compound with 5'-GMP (Acros) was monitored using ^1H NMR spectroscopy to observe the disappearance of the H8 signal of the unreacted 5'-GMP at ≈8 ppm and the appearance of a product signal ≈0.5–1.0 ppm downfield of the unreacted 5'-GMP. The reaction was conducted with excess platinum compound present in each case. A 10 mM solution of 5'-GMP and a 10–20 mM solution of the platinum(II) compound were prepared separately in D2O. The pH (uncorrected for the effects of deuterium) of each solution was adjusted to 7, and the samples were equilibrated to 25°C in a water bath. Aliquots of the two solutions were combined and placed in an NMR tube; typically, the final concentrations of platinum was 5–18 mM and the concentration of 5'-GMP was 1 mM (except for the [Pt(dien)Cl]^+ reaction, where it was 0.5 mM). Samples were maintained at 25°C throughout the NMR experiment. The H8 resonances were integrated and the data was fitted to an equation that was first order in each reactant using DynaFit to determine rate constants. At least two runs were conducted for each platinum compound using fresh samples.

[7] = system: Caco-2 colorectal cancer cell line; assay: MTT cellular viability assay, Caco2; format: cell-based; settings: 72 hours, ± standard deviation
Description: as §1, §2, §3

| Compound | IC50 [1] [µM] | AEP hearing threshold, significance of pairwise comparison against vehicle ([2]; 100 Hz) | AEP hearing threshold, significance of pairwise comparison against vehicle ([2]; 250 Hz) | AEP hearing threshold, significance of pairwise comparison against vehicle ([2]; 400 Hz) | AEP hearing threshold, significance of pairwise comparison against vehicle ([2]; 600 Hz) | AEP hearing threshold, significance of pairwise comparison against vehicle ([2]; 800 Hz) | AEP hearing threshold, significance of pairwise comparison against vehicle ([2]; 1000 Hz) | AEP hearing threshold, significance of pairwise comparison against vehicle ([2]; 1500 Hz) | AEP hearing threshold, significance of pairwise comparison against vehicle ([2]; 3000 Hz) | IC50 [3] [µM] | effect on hair cell density in four regions of the saccule compared to vehicle [4] | IC50 [5] [µM] | mean (± S.E.) temporary threshold shift (TTS), averaged across frequencies [2] | AEP hearing threshold, significance of pairwise comparison against cisplatin ([2]; 100 Hz) | AEP hearing threshold, significance of pairwise comparison against cisplatin ([2]; 250 Hz) | AEP hearing threshold, significance of pairwise comparison against cisplatin ([2]; 400 Hz) | AEP hearing threshold, significance of pairwise comparison against cisplatin ([2]; 600 Hz) | AEP hearing threshold, significance of pairwise comparison against cisplatin ([2]; 800 Hz) | AEP hearing threshold, significance of pairwise comparison against cisplatin ([2]; 1000 Hz) | AEP hearing threshold, significance of pairwise comparison against cisplatin ([2]; 1500 Hz) | further results |
| --- | --- | --- | --- | --- | --- | --- | --- | --- | --- | --- | --- | --- | --- | --- | --- | --- | --- | --- | --- | --- | --- |
| N.N.[Cl][Pt][Cl] [Cisplatin, cisplatin] | 9.79 ± 0.63 | ns (ns, p > 0.05) | ns (ns, p > 0.05) | **** (**** p ≤ 0.0001) | *** (*** p ≤ 0.001) | *** (*** p ≤ 0.001) | **** (**** p ≤ 0.0001) | **** (**** p ≤ 0.0001) | ns (ns, p > 0.05) | 0.53 ± 0.94 | hair cell density reduction in the 5, 25 and 50% regions | 3.11 ± 0.06 | – | – | – | – | – | – | – | – | saccule hair cell density, % of control ([4]; 5% location along rostral-caudal axis): 69.5 % of control; saccule hair cell density, % of control ([4]; 25% location along rostral-caudal axis): 41.4 % of control; saccule hair cell density, % of control ([4]; 50% location along rostral-caudal axis): 47.7 % of control |
| [NH3+][Pt-2]([NH3+])([Cl])[n+]1ccccc1 (stereo not shown) [Pyriplatin, pyriplatin] | 89.28 ± 0.46 | * (* p ≤ 0.05) | ns (ns, p > 0.05) | ns (ns, p > 0.05) | ns (ns, p > 0.05) | ns (ns, p > 0.05) | ns (ns, p > 0.05) | ns (ns, p > 0.05) | ns (ns, p > 0.05) | 16.1 ± 1.13 | no hair cell reduction | 66.3 ± 0.74 | 6 dB and 6.2 ± 2.1 dB | ns (ns, p > 0.05) | ns (ns, p > 0.05) | ns (ns, p > 0.05) | ns (ns, p > 0.05) | ns (ns, p > 0.05) | ns (ns, p > 0.05) | * (* p ≤ 0.05) | AEP hearing threshold, significance of pairwise comparison against cisplatin ([2]; 3000 Hz): ns (ns, p > 0.05); Relative rate (rate constant divided by the rate constant for [Pt(dien)Cl]^+) [6]: 0.073; Rate constant for the reaction of 5'-GMP with the platinum(II) complex [6]: 2.9 (+/- 0.7) x 10^−2 M^-1s^-1; Rate constant for the reaction of 5'-GMP with the platinum(II) complex ([6]; listed as pyriplatin): 2.9 ± 0.7 x 10^−2 M^-1s^-1; IC50 [7]: 20.9 ± 0.69 µM |
| CC[N+]1(CC)CC[NH+]2CC[NH2+][Pt-2]21[Cl] (stereo not shown) [[Pt(Et2dien)Cl]^+, Pt(N,N-diethyldiethylenetriamine)Cl] | – | *** (*** p ≤ 0.001) | ns (ns, p > 0.05) | **** (**** p ≤ 0.0001) | **** (**** p ≤ 0.0001) | **** (**** p ≤ 0.0001) | **** (**** p ≤ 0.0001) | ns (ns, p > 0.05) | ** (** p ≤ 0.01) | – | no significant reduction in hair cell bundles | – | 11.1 ± 2.5 dB | ns (ns, p > 0.05) | ns (ns, p > 0.05) | ns (ns, p > 0.05) | ns (ns, p > 0.05) | * (* p ≤ 0.05) | ns (ns, p > 0.05) | ns (ns, p > 0.05) | AEP hearing threshold, significance of pairwise comparison against cisplatin ([2]; 3000 Hz): ns (ns, p > 0.05); Relative rate (rate constant divided by the rate constant for [Pt(dien)Cl]^+) [6]: 0.00012; Rate constant for the reaction of 5'-GMP with the platinum(II) complex [6]: 4.64 ± 0.08 x 10^−5 M^-1s^-1 and 4.64 (+/- 0.08) x 10^−5 M^-1s^-1 |
| CC[N+]1(CC)CC[NH+]2CC[NH][Pt-2]21[Cl] (stereo not shown) [[Pt(Et2dien)Cl]^+, Pt(N,N-diethyldiethylenetriamine)Cl] | 67.3 ± 0.36 | – | – | – | – | – | – | – | – | 7.13 ± 0.98 | – | 48 ± 11.8 | – | – | – | – | – | – | – | – | IC50 [7]: 72.5 ± 3.37 µM |

From article PMC5841658, “Anti-cancer characteristics and ototoxicity of platinum(II) amine complexes with only one leaving ligand” (PLoS ONE, 2018)
